What was measured:
[1] = test system: A2058 cells (BRAF mutant); test: Apoptosis induction, caspase-3/7 activation (Incucyte live-cell imaging); type: cell-based; conditions: T-A-32 in combination with trametinib, compared with either single agent treatment alone
Text: (§1) This study determined the ability of T-A-32 to enhance apoptosis in combination with osimertinib and trametinib in epidermal growth factor receptor (EGFR) mutant cell lines, and in combination with trametinib in Kirsten rat sarcoma viral oncogene (KRAS) or v raf murine sarcoma viral oncogene homolog B (BRAF) mutant cancer cell lines.
(§2) Three EGFR mutant cell lines (HCC4006, HCC827, and NCI-H1975), 5 KRAS mutant cell lines (A549, HCT116, Capan-2, Calu-1, and LoVo), and 1 BRAF mutant cell line (A2058) from multiple cancer indications were tested. The EGFR mutant cell lines were treated with single agent T-A-32, osimertinib (an EGFR inhibitor), or trametinib (a mitogen-activated protein kinase kinase [MEK] inhibitor); a dual combination of osimertinib and trametinib; or a triple combination of T-A-32, osimertinib, and trametinib in a 96-well plate format. The KRAS and BRAF mutant cell lines were treated with single agent T-A-32 or trametinib, or a dual combination of T-A-32 and trametinib in a 96-well plate format. Apoptosis induction was assessed by monitoring the activation of caspase-3/7 using a probe that generates bright green fluorescence upon DEVD peptide cleavage by activated caspase-3/7 as an early indicator of apoptosis every 2 hours for approximately 96 hours.
(§3) All cell lines were cultured in the recommended medium supplemented with 10% fetal bovine serum (FBS) at 37° C. in a humidified atmosphere containing 5% CO2 until they were at least 80% confluent as follows: • HCC4006, HCC827, and NCI-H1975 cells in Roswell Park Memorial Institute 1640+10% FBS • A2058 cells in Dulbecco's Modified Eagle Medium+10% FBS • HCT-116, Capan-2, and Calu-1 cells in McCoy's 5A+10% FBS • LoVo and A549 cells in F 12K+10% FBS
(§4) Cells were trypsinized, counted by an automated cell counter, and added to all wells of a 96-well plate at 3000 cells/well in 100 μL of the appropriate medium (1 plate for each cell line). The next day, compounds were diluted in DMSO to 1000× concentration. CELLEVENT Caspase-3/7 Green READYPROBE Reagent was prepared as per manufacturer's instructions by adding 1 drop of READYPROBE reagent into 1 mL of the appropriate medium. Compounds were diluted in the READYPROBE/medium mixture to 3× concentration and 50 μL were added to the cells. The plates were subsequently scanned every 2 hours using an Incucyte S3 Live-Cell Analysis System (Sartorius) for a total of 72 to 136 hours depending on the cell line. Plates were maintained at 37° C. in a humidified atmosphere containing 5% CO2 over the course of experiment.

[2] = test system: Calu 1 cells (KRAS mutant); test: as above; type: cell-based; conditions: T-A-32 in combination with trametinib, compared with either single agent treatment alone
Text: as §1, §2, §3, §4

[3] = test system: Capan 2 cells (KRAS mutant); test: as above; type: cell-based; conditions: T-A-32 in combination with trametinib, compared with either single agent treatment alone
Text: as §1, §2, §3, §4

[4] = test system: HCC4006 cells (EGFR mutant NSCLC); test: as above; type: cell-based; conditions: triple combination of T-A-32, osimertinib, and trametinib, compared with the 3 single agent treatments and the dual combination of osimertinib and trametinib
Text: as §1, §2, §3, §4

[5] = test system: HCC827 cells (EGFR mutant NSCLC); test: as above; type: cell-based; conditions: triple combination of T-A-32, osimertinib, and trametinib, compared with the 3 single agent treatments and the dual combination of osimertinib and trametinib
Text: as §1, §2, §3, §4

A549 cells (KRAS mutant) = test: as above; type: cell-based, human; conditions: T-A-32 in combination with trametinib, compared with either single agent treatment alone
Text: as §1, §2, §3, §4

[6] = test system: HCT-116 cells (KRAS mutant); test: as above; type: cell-based, human; conditions: T-A-32 in combination with trametinib, compared with either single agent treatment alone
Text: as §1, §2, §3, §4

LoVo cells (KRAS mutant) = test: as above; type: cell-based, human; conditions: T-A-32 in combination with trametinib, compared with either single agent treatment alone
Text: as §1, §2, §3, §4

[7] = test system: NCI-H1975 cells (EGFR mutant NSCLC); test: as above; type: cell-based, human; conditions: triple combination of T-A-32, osimertinib, and trametinib, compared with the 3 single agent treatments and the dual combination of osimertinib and trametinib
Text: as §1, §2, §3, §4

[8] = test system: H1975 human non-small cell lung xenografts; test: H1975 EGFR mutant lung cancer xenograft mouse model, tumor growth; type: in vivo, female Nu/Nu mice; conditions: for TGI (tumor growth inhibition): Day 18, vs vehicle control, p<0.001
Procedure: This study determined the in vivo antitumor activity of T-A-32 administered in combination with osimertinib, an EGFR inhibitor and trametinib, a MEK inhibitor. This combination was tested in immunodeficient nude mice (Nu/Nu) bearing H1975 human non-small cell lung xenografts. H1975 was chosen as a xenograft model because H1975 harbors EGFR T790M/[…]L858R mutations. T970M is well known point mutation for osimertinib resistance and L858R is also known EGFR activation mutation.
Six- to 9-week-old female Nu/Nu mice were inoculated SC with 2×10^6 H1975 human non-small cell lung tumor cells in the right flank. Tumor growth was monitored twice per week using vernier calipers and the mean tumor volume (MTV) was calculated. When the MTV reached approximately 177 mm^3, animals were randomized into treatment groups (n=10/group) and dosed orally (PO) with either vehicle control (5% DMSO+95% PEG 400 (Vehicle 1)+0.5% hydroxypropyl methyl cellulose and 0.2% Tween-80 (Vehicle 2)+1% Tween 80 (Vehicle 3)) or T-A-32 at 75 mg/kg, osimertinib at 2.5 mg/kg, or trametinib at 1 mg/kg QD for 18 days.
(§5) Treatments started on Day 0, tumor size and body weight were measured twice per week, and the study was terminated when the vehicle control tumors reached a mean of approximately 1600 mm^3. Percent TGI was calculated on Day 18 when the control MTV reached the maximum allowable tumor volume. The mean maximum body weight change was determined for each group.

[9] = test system: HCT-116 human colorectal carcinoma xenografts; test: HCT116 KRAS G13D mutant colorectal carcinoma xenograft mouse model, tumor growth; type: in vivo, female Nu/Nu mice; conditions: T-A-32 PO 75 mg/kg QD in combination with trametinib 0.5 mg/kg; Day 14; vs vehicle control; p<0.0001
Procedure: (§6) This study determined the in vivo antitumor activity of T-A-32 administered in combination with trametinib, a MEK inhibitor. This combination was tested in immunodeficient nude mice (Nu/Nu) bearing HCT-116 human colorectal carcinoma xenografts. HCT116 was chosen as a xenograft model because HCT116 harbors a the KRAS G13D mutation.
(§7) Six- to eight-week-old female Nu/Nu mice were inoculated subcutaneously with 1×10^6 HCT116 human colorectal carcinoma tumor cells in the right flank. Tumor growth was monitored twice per week using vernier calipers and the mean tumor volume (MTV) was calculated. When the MTV reached approximately 150-200 mm^3, approximately ten (10) days after cell inoculation, animals were randomized into treatment groups (n=10/group) and dosed orally (PO) with either vehicle control (5% DMSO+95% PEG 400 (Vehicle 1)+0.5% hydroxypropyl methyl cellulose and 0.2% Tween-80 (Vehicle 2)) or T-A-32 at 75 mg/kg, or trametinib at 0.5 mg/kg once per day (PO) for fourteen (14) days.
as §5, with “Tumor” for “Treatments started on Day 0, tumor”, “twice,” for “twice per week,”, “2000” for “1600”, “14” for “18”

[10] = test system: A549 human lung cancer xenografts; test: A549 KRAS G12S mutant lung cancer xenograft mouse model, tumor growth; type: in vivo, female Nu/Nu mice; conditions: T-A-32 PO 75 mg/kg QD in combination with trametinib 1.0 mg/kg; Day 25; vs vehicle control; p<0.0001
Procedure: as §6, with “A549” for “HCT-116”, “lung cancer” for “colorectal carcinoma”, “A549” for “HCT116”, “A549 cells harbor” for “HCT116 harbors a”, “G12S” for “G13D”
as §7, with “with 5×10^6 A549” for “with 1×10^6 HCT116”, “human lung cancer” for “human colorectal carcinoma tumor”, “approximately eight (8)” for “approximately ten (10)”, “groups (n=8/group)” for “groups (n=10/group)”, “at 1.0” for “at 0.5”, “for twenty-five (25)” for “for fourteen (14)”
Tumor size and body weight were measured twice per week, and all treatments ended on day 25. Percent TGI was calculated on Day 25 when the control MTV reached the maximum allowable tumor volume. The mean maximum body weight change was determined for each group.

[11] = test system: LoVo human colorectal adenocarcinoma xenografts; test: LoVo KRAS G12D mutant colorectal adenocarcinoma xenograft mouse model, tumor growth; type: in vivo, female Nu/Nu mice; conditions: T-A-32 PO 75 mg/kg QD in combination with trametinib 1.0 mg/kg; Day 28; vs vehicle control; p<0.0001
Procedure: as §6, with “LoVo” for “HCT-116”, “adenocarcinoma” for “carcinoma”, “LoVo” for “HCT116”, “LoVo cells harbor” for “HCT116 harbors a”, “G12D” for “G13D”
as §7, with “with 5×10^6 LoVo” for “with 1×10^6 HCT116”, “colorectal adenocarcinoma” for “colorectal carcinoma tumor”, “approximately eight (8)” for “approximately ten (10)”, “at 1.0” for “at 0.5”, “for twenty-eight (28)” for “for fourteen (14)”
Tumor size and body weight were measured twice per week, and all treatments ended on day 28. Percent TGI was calculated on Day 28 when the control MTV reached the maximum allowable tumor volume. The mean maximum body weight change was determined for each group.

Row | Compound | apoptosis (caspase-3/7 activation) [1] | apoptosis (caspase-3/7 activation) [2] | apoptosis (caspase-3/7 activation) [3] | apoptosis (caspase-3/7 activation) [4] | apoptosis (caspase-3/7 activation) [5] | apoptosis (caspase-3/7 activation) (A549 cells (KRAS mutant)) | apoptosis (caspase-3/7 activation) [6] | apoptosis (caspase-3/7 activation) (LoVo cells (KRAS mutant)) | apoptosis (caspase-3/7 activation) [7] | TGI (tumor growth inhibition) ([8]; T-A-32 PO 75 mg/kg QD in combination with osimertinib (2.5 mg/kg)) | TGI (tumor growth inhibition) ([8]; T-A-32 in combination with both trametinib and osimertinib, PO QD) | tumor regression ([8]; triple combination of T-A-32, osimertinib, and trametinib, H1975 xenograft) | TGI (tumor growth inhibition) [9] | TGI (tumor growth inhibition) [10] | TGI (tumor growth inhibition) [11] | TGI (tumor growth inhibition) ([8]; trametinib 1 mg/kg in combination with osimertinib 2.5 mg/kg, PO QD)
1 | CNS(=O)(=O)c1ccc(NCc2ccc(C(F)(F)F)cc2)c(-c2cn(C)cn2)c1 [T-A-32, N-methyl-3-(1-methyl-1H-imidazol-4-yl)-4-((4-(trifluoromethyl)benzyl)amino)benzenesulfonamide] | enhanced apoptosis | enhanced apoptosis | enhanced apoptosis | enhanced apoptosis | enhanced apoptosis | enhanced apoptosis | enhanced apoptosis | enhanced apoptosis | enhanced apoptosis | 88% | 99% | complete regressions | 78% | 83% | 75% | –
2 | CC(=O)Nc1cccc(-n2c(=O)n(C3CC3)c(=O)c3c(Nc4ccc(I)cc4F)n(C)c(=O)c(C)c32)c1 [trametinib, reference compound] | – | – | – | – | – | – | – | – | – | – | – | – | – | – | – | 71%
